In ChEMBL document CHEMBL1201862, “PubChem BioAssay data set” (2004):
Activity calls are given as the source filed them. Cut-off read from the data, not from the text of the source, for most assays here: actives have a measured EC50 and inactives only a lower limit.

Tests used:
[1] = NIH-3T3 fibroblast cytotoxicity, dose response, cytotoxicity control, cell-based, fluorescence, Alamar Blue, secondary assay (AID 2327); assay type: functional;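 note: NIH-3T3 mouse fibroblasts cultured with fluconazole at 8 µg/mL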
[2] = fluconazole-exposed Candida albicans growth modulators – fluorescence, retest, confirmation (AID 2467); assay type: functional, cell-based
[3] = test system: Streptococcus sp. 'group A'; assay: Streptococcus pyogenes SK(-)GAS viability under kanamycin – luminescence, BacTiterGlo, confirmation, counter-screen for streptokinase expression inhibitor project, dose response (AID 1900); assay type: functional, organism-based
Streptokinase A = molecular target: T1, Streptokinase A (Streptococcus pyogenes serotype M1, UniProt P10520); assay: viability-normalized secreted streptokinase activity reduction – plasminogen activation absorbance, OD405, dose response (AID 1914); assay type: functional, Streptococcus pyogenes M1 GAS;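 note: secreted streptokinase activity via plasminogen activation per viability signal from cell pellet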
T1 sequence (P10520 whole entry): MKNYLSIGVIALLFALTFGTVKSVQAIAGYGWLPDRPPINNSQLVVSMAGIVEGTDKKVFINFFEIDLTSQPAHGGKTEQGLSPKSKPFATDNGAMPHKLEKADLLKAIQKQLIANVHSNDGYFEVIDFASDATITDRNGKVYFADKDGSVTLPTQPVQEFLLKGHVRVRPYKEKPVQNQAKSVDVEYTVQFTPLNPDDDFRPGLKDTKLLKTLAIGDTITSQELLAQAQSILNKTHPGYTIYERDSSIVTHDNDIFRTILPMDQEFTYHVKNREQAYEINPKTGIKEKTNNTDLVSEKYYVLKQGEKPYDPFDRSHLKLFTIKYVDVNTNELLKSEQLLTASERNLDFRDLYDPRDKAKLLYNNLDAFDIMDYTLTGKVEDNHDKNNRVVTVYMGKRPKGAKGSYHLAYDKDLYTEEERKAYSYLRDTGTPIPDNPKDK

Streptococcus = assay: GAS UMAA2166 growth inhibition – luminescence, BacTiterGlo, counter-screen for streptokinase expression inhibitor project, dose response (AID 1915); assay type: functional, organism-based;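 note: potency for reduction of bacterial viability or growth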
[4] = Luminescence Cell-Based Dose Confirmation HTS to Identify Activators of 5'UTR Stem-Loop Driven Alpha-Synuclein mRNA Translation in H4 Neuroglioblastoma Cells. [Related pubchem assays: 1829 (Project Summary), 1814 (Primary HTS)]; assay type: functional
[5] = Luminescence Cell-Based Dose Response HTS to Identify Activators of Luciferase Translation or Activity in H4 […] Cells. [Related pubchem assays: 1829 (Project Summary), 1814 (Primary HTS)]; assay type: functional
H4 = assay: Luminescence Cell-Based Dose Response HTS to Identify Activators of 5'UTR Stem-Loop Driven Prion Protein mRNA Translation in H4 Neuroglioblastoma Cells. [Related pubchem assays: 1829 (Project Summary), 1814 (Primary HTS)]; assay type: functional; details: Homo sapiens
[6] = Luminescence Cell-Based Dose Retest to Confirm Inhibitors of Cancer Stem Cells. [Related pubchem assays (depositor defined):AID2717, AID2721]; assay type: functional; details: Homo sapiens
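Throughout, for AC50: cells exposed to compound for roughly 70 hours or longer before luminescence read.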

SMILES | EC50 [3] | EC50 (Streptokinase A) | EC50 (Streptococcus) | EC50 [4] | EC50 [5] | EC50 (H4) | also measured
O=C(NC1CCCCC1)C(c1ccc2ncccc2c1)N(Cc1ccc(F)cc1)C(=O)c1ccc2c(c1)OCCO2 (stereo not given) |  |  |  |  |  |  | EC50 [1]: > 150 µM (inconclusive); EC50 [2]: > 38 µM (not active)
O=C(NC(=S)Nc1ccc(Cl)cn1)C(c1ccccc1)c1ccccc1 | 3.85 µM (active) | > 150 µM (not active) | 6.57 µM (active) |  |  |  | 
Cc1cc(C(=O)CSc2nnc(-c3cccnc3)n2-c2ccccc2)c(C)n1CC1CCCO1 (stereo not given) |  |  |  | 8.04 µM (active) | 18.7 µM (active) | > 60 µM (not active) | 
N#Cc1ccc(-c2nc3cc(Cl)ccc3c(=O)n2O)cc1 |  |  |  |  |  |  | EC50 [1]: > 160 µM (inconclusive); EC50 [2]: 1.63 µM (active)
Cc1occc1C(=O)Nc1nnc(C(F)(F)F)s1 |  |  |  |  |  |  | EC50 [1]: > 150 µM (inconclusive); EC50 [2]: 1.95 µM (active)
COc1ccc(C(=O)Nc2cccc(-c3ccc(N4CCOCC4)nn3)c2)cc1 | > 150 µM (not active) | > 150 µM (not active) | > 150 µM (not active) |  |  |  | 
CCOC(=O)C1(Cc2cccc(OC)c2)CCCN(C(=O)CCN2CCCO2)C1 (stereo not given) |  |  |  | 11.1 µM (active) | 9.65 µM (active) | 2 µM (active) | 
NC(=O)c1ccsc1NC(=O)CCS(=O)(=O)c1ccccc1 |  |  |  |  |  |  | EC50 [1]: > 150 µM (inactive); EC50 [2]: > 38 µM (not active)
Cc1ccc(Oc2cc(C)nc(-c3ccccc3O)n2)cc1 |  |  |  | 12.9 µM (active) | 15 µM (active) | 44 µM (inconclusive) | 
CCCCNC(=O)C1CCN(Cc2ccc(OCc3ccccc3)cc2)CC1 |  |  |  | 18.6 µM (active) | 70.9 µM (active) | 63.1 µM (active) | 
c1ccc2c(c1)CCN(c1nc3ccccc3n3cnnc13)C2 |  |  |  | 0.123 µM (active) | 26.4 µM (active) | 29.1 µM (active) | 
Cc1ccc(S(=O)(=O)N(C)CC(=O)N2CC(C)OC(C)C2)cc1 (stereo not given) | > 150 µM (not active) | > 150 µM (not active) | > 150 µM (not active) |  |  |  | 
CCOc1ccccc1N1CCN(CC(O)COC2CCCc3ccccc32)CC1 (stereo not given) |  |  |  |  |  |  | EC50 [1]: > 160 µM (inactive); EC50 [2]: 1.02 µM (active)
CCC1(C)Cc2ccccc2-c2c1c(=O)n(Cc1ccccc1)c1nnnn21 (stereo not given) |  | 4.04 µM (active) | > 150 µM (not active) |  |  |  | 
O=C(c1ccccc1)N1CCN(c2ncnc3c(-c4ccccc4)nsc23)CC1 |  |  |  | 33.1 µM (active) | > 120 µM (not active) | 17 µM (active) | 
CCOC(=O)c1ccc(Nc2ncccc2[N+](=O)[O-])cc1 |  |  |  | 0.12 µM (active) | 1.82 µM (active) | 0.801 µM (active) | 
COc1ccccc1-c1c[nH]nc1-c1ccc(OCc2ccc(F)cc2)cc1O | 7.62 µM (active) | 76.6 µM (active) | 24.5 µM (active) |  |  |  | 
Nc1nn2cc(-c3ccc(Br)cc3)nc2c2ccccc12 |  |  |  |  | 0.177 µM (active) | 2.38 µM (active) | EC50 [1]: 109 µM (active); EC50 [2]: 1.24 µM (active)
O=C(Nc1ccc(-c2csc(Nc3ccc(Cl)cc3)n2)cc1)c1cc([N+](=O)[O-])cc(C(F)(F)F)c1 | 8.5 µM (active) | > 150 µM (not active) | 7.28 µM (active) |  |  |  | AC50 [6]: 1.32 µM (active)
COc1cccc(NC(=O)C(=O)N2CCOCC2)c1 |  |  |  | 4.35 µM (active) | 78.3 µM (active) | 24.3 µM (active) | 
COc1ccc(/C=C/C(=O)NC(=S)NNC(=O)c2cc(OC)c(OC)c(OC)c2)cc1OC | 3.3 µM (active) | > 150 µM (not active) | 17.8 µM (active) |  |  |  | 
Cc1ccc(-c2nn(-c3ccccc3)cc2/C=C2\SC(=S)N(CCCCCC(=O)O)C2=O)o1 |  |  |  | 12.6 µM (active) | 16 µM (active) | 13.9 µM (active) | 
COc1ccc(NC(=O)c2cc3cccc(OC)c3o/c2=N\c2ccc(C(=O)O)cc2)cc1OC | 2.38 µM (active) | > 150 µM (not active) | 20.2 µM (active) |  |  |  | 
